Measurements taken from patent publication US6537545B1, “Use of corneal hardening agents in enzymeorthokeratology” (ISTA Pharmaceuticals, Inc., priority 1998, dated 2003).

Key:
[1] = tested on: eyes of myopic human subjects; test: Mild myopia study, group I: 50 IU hyaluronidase, corrective lenses, 3% glyceraldehyde (Example 9); format: in vivo; conditions: 50 IU hyaluronidase and corrective lenses
Source text: (§1) Given the favorable results obtained in Example 8, an additional study was undertaken to test the safety and efficacy of the method of the present invention using a larger group of subjects. In this study, a group of subjects were selected and randomly separated into three test groups to test the safety and efficacy of using hyaluronidase and a glyceraldehyde solution for treating subjects with sub-optimal visual acuity. Groups one and two received an intrastromal injection of hyaluronidase (50 and 500 IU, respectively), while group three received a control injection of saline.
(§2) Following a two week incubation period after the injection, the three groups were fitted with corrective lenses to optimize the visual acuity of the subjects. The corrective lenses were left in place for a period of time sufficient to alter the shape of the subjects' eyes so as to achieve an optimal visual acuity. This period of time was generally 2 days in length. Once an acceptable visual acuity was achieved, the subjects in the three groups received a topical 3% glyceraldehyde solution in the form of ophthalmic drops four times per day while wearing the corrective lenses. The glyceraldehyde treatment was generally administered for one month. Lens wear occurred from 8 to 12 hours during the day.
(§3) At the end of the treatment period both the lens wear and the glyceraldehyde solution administration was terminated. The general health and visual acuity of the subjects was monitored from 3 to 5 months following treatment termination.
Before beginning the experimental protocol, test subjects were examined initially to establish a baseline from which the future results of the treatment were compared. For each subject a medical history was taken and a detailed examination of the eyes was also performed. The eyes of each subject were tested to determine: refraction cell count, intraocular pressure (IOP), pachymetry, corneal topography and corneal elasticity. A slit-lamp examination was also performed to establish the health of the eye. Also, the presence of any general or ocular discomfort of the subjects was noted.
Following the establishment of a baseline reading, group 1 subjects were administered a single intrastromal injection of 50 IU hyaluronidase prior to the orthokeratology treatment. Following 14 days of incubation, the subjects were fitted with corrective contact lenses for overnight wear. Subjects wore the corrective lenses night and day for a period of two (2) to seven (7) days or until visual 20/20 visual acuity was achieved. Subjects achieving an acceptable visual acuity (approximately 20/20) received an application of the topical 3% glyceraldehyde solution ophthalmic drops four times per day (8:00, 12:00, 16:00, and 20:00) for a period of 1 month in conjunction with daytime lens wear for stabilization. Lens wear lasted for 8 to 12 hours per day. The subjects were examined periodically during the glyceraldehyde treatment to monitor changes in the health of the treated eyes.
(§4) At the end of the treatment period, the stabilizing lens were removed and the administration of the 3% glyceraldehyde solution was terminated. Following termination of the treatment, the subjects were examined immediately after treatment was terminated, once a week for the first four weeks after termination, and then monthly to measure changes in the visual acuity of the treated eyes. The health of the eye was also monitored. Sequelae characterized by the appearance or worsening of serious ocular symptoms or slit-lamp findings observed during these examinations was assessed. The proportions of subjects with such findings were analyzed.

[2] = tested on: eyes of myopic human subjects; test: Mild myopia study, group II: 500 IU hyaluronidase, corrective lenses, 3% glyceraldehyde (Example 9); format: in vivo; conditions: 500 IU hyaluronidase and corrective lenses
Source text: as §1, §2, §3
The subjects of group II were treated as those in group I in preparation for their participation in the study reported here. Before beginning the experimental protocol, test subjects were examined initially to establish a baseline from which the future results of the treatment were compared.
Following the establishment of a baseline reading, group II subjects were fitted with contact lenses and wore the corrective lenses at night for a period of two (2) to seven (7) days or until an acceptable visual acuity (approximately 20/20) was achieved. Group II test subjects received 500 IU of hyaluronidase by injection as compared to the 50 IU of group I. Two groups of subjects received 500 IU of hyaluronidase. The results obtained from the first group are shown in Table IIIA and the results from the second group are shown in Table IIIA and are identified in the table by the notation Gr. VI. There were no meaningful differences in the treatment protocols between these two groups. Subjects achieving an acceptable visual acuity received the topical 3% glyceraldehyde solution in the form of ophthalmic drops four times per day (08:00, 12:00, 16:00, and 20:00) for a period of 1 month in conjunction with daytime lens wear for stabilization. During this period, lens were occurred for approximately 8-12 hours per day and there was no nocturnal lens wear.
The subjects were examined periodically during the glyceraldehyde treatment to monitor changes in the health of the treated eyes.
as §4, with “examinations were” for “examinations was”

[3] = tested on: eye of myopic human patient; test: Safety and efficacy of hyaluronidase and topical 3% glyceraldehyde solution, myopia in a human patient (Example 8); format: in vivo; conditions: one subject, baseline UVA 20/300; 50 IU hyaluronidase, 7 days incubation, 7 days corrective lens wear, before drops
Experimental: In this study, a single subject was selected to test the safety and efficacy of using hyaluronidase and a glyceraldehyde solution to treat sub-optimal visual acuity. In this study, the subject was first medically evaluated and a baseline was established. A medical history of the subject was taken and a detailed examination of the subject's eyes was also performed. The subject's eyes were tested to determine: refraction, cell count, intraocular pressure (IOP), pachymetry, corneal topography and corneal elasticity. A slit-lamp examination was also performed to establish the health of the eyes. Also, the presence of any general or ocular discomfort of the subject was noted.
Following the establishment of a baseline reading (UVA 20/300), the subject was administered a single intrastromal injection of 50 IU hyaluronidase prior to the orthokeratology treatment. Following 7 days of incubation of the subject's eyes with the injected material, the subject was fitted with corrective contact lenses for overnight wear. The subject wore the corrective lenses day and night for a period of seven (7) days. At this point the subject's visual acuity was 20/15. […] The visual acuity of the subject was then monitored for 196 days to determine the effect of the treatment on the unaided visual acuity of the subject;

cornea = test: Corneal elasticity, recovery from indentation by spherical glass indentor (Example 7); format: in vivo, human; conditions: eyes injected with hyaluronidase solution
Experimental: A precision spherical glass indentor was used to contact the corneal surface of subjects treated with the methods of the present invention to measure changes in corneal elasticity. The method used involved the application of the indentor, in the form of a small spherical ball to gently deflect into a test cornea to establish an initial deflection value. Measurements were taken by using an interferometer to view the deflection. Following this application, the relaxation period was measured by observing the change in the impression made by the indentor.
The indentation range of movement was characterized using a precision linear variable differential transducer (LVDT) device that measured the linear travel of a stage carrying the indentor probe. The average travel distance of the probe was established at approximately 700 micrometers. The contact depth of the indentor probe was measured by evaluating the corneal surface immediately after indentation and measuring the local height values caused by the probe contact. This value was measured to range from 266 to 300 micrometers.
A digital timer was used to mark the beginning and ending times during observation. Changes in the impression were readily observed during this period. The final end point was considered to be when the local fringe disturbance was recovered blending with the undisturbed neighboring fringes. […] However, given the time scales involved, the value of this error is considered to be small.
The method of inducing corneal inflection involved first contacting the test corneal with the indentor. After the initial contact with the cornea was established, the probe was moved forward into the cornea to a predetermined distance. Seven hundred microns was used to achieve adequate deflection. Topography was taken immediately after the deflection to record the impression made in the cornea. Observations of the cornea were then made at one (1) minute intervals to note the change in the impression made. […] Another topography was done after five (5) minutes to record the final condition of the impression. […]

## hyaluronidase
[1]; all subjects except ARR/001 and JLV/015, before drops
  visual acuity achieved by initial orthokeratological treatment: 20/20
[1]; subject 001, before glyceraldehyde drops
  visual acuity achieved by initial orthokeratological treatment: 20/25
[1]; subject 015, before glyceraldehyde drops
  visual acuity achieved by initial orthokeratological treatment: 20/40
[2]; subject 013 (Table IIIA)
  visual acuity achieved before glyceraldehyde drops: 20/40
[2]; subject 104 (Table IIIB)
  visual acuity achieved before glyceraldehyde drops: 20/50
[3]
  visual acuity: 20/15
cornea
  change in corneal elasticity vs baseline: significant reduction in corneal elasticity
